Experimental data published in US20150094474A1, “AGRICULTURAL CHEMICALS” (Redx Pharma Ltd., priority 2012, published 2015).

Experiments:
[1] = tested on: peas; assay: Herbicidal bioassay, peas (% necrosis); format: in vivo
In short: (§1)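 Lolium perenne, barley, peas and Chinese cabbage at 2-4 true leaf stage sprayed simultaneously with a Potter tower, compounds in DMSO at six concentrations (0.05% to 0.0001%). Phytotoxicity scored as % necrosis per EPPO PP1/135 at set intervals; five replicates per treatment and species; DMSO and water controls.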

[2] = tested on: barley; assay: Herbicidal bioassay, barley (% necrosis); format: in vivo
In short: as §1

CC(CO)Oc1ccc(Oc2ccc(C(F)(F)F)cn2)cc1 (stereo not drawn) [Compound 27, 2-[4-[[5-(Trifluoromethyl)-2-pyridyl]oxy]phenoxy]propan-1-ol]
C (less than 50% necrosis): Sum of % necrosis in Peas ([1]; Dose 0.000001, Day 0) | Sum of % necrosis in Peas ([1]; Dose 0.000001, Day 1) | Sum of % necrosis in Peas ([1]; Dose 0.000001, Day 3) | Sum of % necrosis in Peas ([1]; Dose 0.000001, Day 7) | Sum of % necrosis in Peas ([1]; Dose 0.000001, Day 10) | Sum of % necrosis in Peas ([1]; Dose 0.000001, Day 14) | Sum of % necrosis in Peas ([1]; Dose 0.000001, Day 21) | Sum of % necrosis in Peas ([1]; Dose 0.000005, Day 0) | Sum of % necrosis in Peas ([1]; Dose 0.000005, Day 1) | Sum of % necrosis in Peas ([1]; Dose 0.000005, Day 3) | Sum of % necrosis in Peas ([1]; Dose 0.000005, Day 7) | Sum of % necrosis in Peas ([1]; Dose 0.000005, Day 10) | Sum of % necrosis in Peas ([1]; Dose 0.000005, Day 14) | Sum of % necrosis in Peas ([1]; Dose 0.000005, Day 21) | Sum of % necrosis in Peas ([1]; Dose 0.00001, Day 0) | Sum of % necrosis in Peas ([1]; Dose 0.00001, Day 1) | Sum of % necrosis in Peas ([1]; Dose 0.00001, Day 3) | Sum of % necrosis in Peas ([1]; Dose 0.00001, Day 7) | Sum of % necrosis in Peas ([1]; Dose 0.00001, Day 10) | Sum of % necrosis in Peas ([1]; Dose 0.00001, Day 14) | Sum of % necrosis in Peas ([1]; Dose 0.00001, Day 21) | Sum of % necrosis in Peas ([1]; Dose 0.00005, Day 0) | Sum of % necrosis in Peas ([1]; Dose 0.00005, Day 1) | Sum of % necrosis in Peas ([1]; Dose 0.00005, Day 3) | Sum of % necrosis in Peas ([1]; Dose 0.00005, Day 7) | Sum of % necrosis in Peas ([1]; Dose 0.00005, Day 10) | Sum of % necrosis in Peas ([1]; Dose 0.00005, Day 14) | Sum of % necrosis in Peas ([1]; Dose 0.00005, Day 21) | Sum of % necrosis in Peas ([1]; Dose 0.0001, Day 0) | Sum of % necrosis in Peas ([1]; Dose 0.0001, Day 1) | Sum of % necrosis in Peas ([1]; Dose 0.0001, Day 3) | Sum of % necrosis in Peas ([1]; Dose 0.0001, Day 7) | Sum of % necrosis in Peas ([1]; Dose 0.0001, Day 10) | Sum of % necrosis in Peas ([1]; Dose 0.0001, Day 14) | Sum of % necrosis in Peas ([1]; Dose 0.0001, Day 21) | Sum of % necrosis in Peas ([1]; Dose 0.0005, Day 0) | Sum of % necrosis in Peas ([1]; Dose 0.0005, Day 1) | Sum of % necrosis in Peas ([1]; Dose 0.0005, Day 3) | Sum of % necrosis in Peas ([1]; Dose 0.0005, Day 7) | Sum of % necrosis in Peas ([1]; Dose 0.0005, Day 10) | Sum of % necrosis in Peas ([1]; Dose 0.0005, Day 14) | Sum of % necrosis in Peas ([1]; Dose 0.0005, Day 21) | Sum of % necrosis in barley ([2]; Dose 0.000001, Day 0) | Sum of % necrosis in barley ([2]; Dose 0.000001, Day 3) | Sum of % necrosis in barley ([2]; Dose 0.000001, Day 7) | Sum of % necrosis in barley ([2]; Dose 0.000001, Day 10) | Sum of % necrosis in barley ([2]; Dose 0.000001, Day 14) | Sum of % necrosis in barley ([2]; Dose 0.000001, Day 21) | Sum of % necrosis in barley ([2]; Dose 0.000005, Day 0) | Sum of % necrosis in barley ([2]; Dose 0.000005, Day 3) | Sum of % necrosis in barley ([2]; Dose 0.000005, Day 7) | Sum of % necrosis in barley ([2]; Dose 0.000005, Day 10) | Sum of % necrosis in barley ([2]; Dose 0.000005, Day 14) | Sum of % necrosis in barley ([2]; Dose 0.000005, Day 21) | Sum of % necrosis in barley ([2]; Dose 0.00001, Day 0) | Sum of % necrosis in barley ([2]; Dose 0.00001, Day 3) | Sum of % necrosis in barley ([2]; Dose 0.00001, Day 7) | Sum of % necrosis in barley ([2]; Dose 0.00001, Day 10) | Sum of % necrosis in barley ([2]; Dose 0.00001, Day 14) | Sum of % necrosis in barley ([2]; Dose 0.00001, Day 21) | Sum of % necrosis in barley ([2]; Dose 0.00005, Day 0) | Sum of % necrosis in barley ([2]; Dose 0.00005, Day 3) | Sum of % necrosis in barley ([2]; Dose 0.00005, Day 7) | Sum of % necrosis in barley ([2]; Dose 0.00005, Day 10) | Sum of % necrosis in barley ([2]; Dose 0.00005, Day 14) | Sum of % necrosis in barley ([2]; Dose 0.00005, Day 21) | Sum of % necrosis in barley ([2]; Dose 0.0001, Day 0) | Sum of % necrosis in barley ([2]; Dose 0.0001, Day 3) | Sum of % necrosis in barley ([2]; Dose 0.0001, Day 7) | Sum of % necrosis in barley ([2]; Dose 0.0001, Day 10) | Sum of % necrosis in barley ([2]; Dose 0.0001, Day 14) | Sum of % necrosis in barley ([2]; Dose 0.0001, Day 21) | Sum of % necrosis in barley ([2]; Dose 0.0005, Day 0) | Sum of % necrosis in barley ([2]; Dose 0.0005, Day 3) | Sum of % necrosis in barley ([2]; Dose 0.0005, Day 7) | Sum of % necrosis in barley ([2]; Dose 0.0005, Day 10) | Sum of % necrosis in barley ([2]; Dose 0.0005, Day 14) | Sum of % necrosis in barley ([2]; Dose 0.0005, Day 21)
